Values joined by “and” are separate entries in the source; they are usually repeats but may differ in a detail not shown here. Identical values can stand only once. “Also recorded” adds a separate entry of the source. Like-named read-outs stand apart in the source and are kept apart here.
Tests used:
60 kd oncofetal protein = assay: effect of β-glucuronidase inhibitors on carcinogen induction of the 60 kd factor in plasma (cell-free RNA transport assay); assay type: in vivo, rat
serum β-glucuronidase = molecular target: T1, serum β-glucuronidase (Rattus norvegicus, UniProt P06760); assay: in vivo; assay type: in vivo
T1 sequence (P06760 23-648): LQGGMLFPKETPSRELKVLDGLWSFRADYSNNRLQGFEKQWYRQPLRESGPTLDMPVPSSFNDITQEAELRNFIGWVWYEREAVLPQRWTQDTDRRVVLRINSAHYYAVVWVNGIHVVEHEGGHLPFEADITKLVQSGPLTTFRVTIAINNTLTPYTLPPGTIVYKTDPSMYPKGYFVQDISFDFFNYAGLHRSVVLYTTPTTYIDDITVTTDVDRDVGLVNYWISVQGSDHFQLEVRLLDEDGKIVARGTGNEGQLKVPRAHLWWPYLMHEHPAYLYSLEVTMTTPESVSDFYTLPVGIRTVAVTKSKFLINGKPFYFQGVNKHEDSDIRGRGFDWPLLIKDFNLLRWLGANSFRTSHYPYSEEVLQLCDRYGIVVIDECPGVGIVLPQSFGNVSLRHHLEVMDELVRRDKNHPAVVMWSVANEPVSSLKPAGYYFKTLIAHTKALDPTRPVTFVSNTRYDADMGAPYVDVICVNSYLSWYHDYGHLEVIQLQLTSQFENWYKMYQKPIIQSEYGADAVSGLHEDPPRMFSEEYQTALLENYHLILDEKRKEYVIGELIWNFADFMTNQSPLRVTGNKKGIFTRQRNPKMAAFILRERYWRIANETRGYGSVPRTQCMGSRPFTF
Description: GL was synthesized and microencapsulated to give sustained-release GL (EGL), by an established procedure used to microencapsulate ascorbic acid, as reported in Samejima, M. et al., Chem. Pharm. Bull., (Tokyo) 1982, 30:2894-2899. In this procedure, the GL as a fine powder is added to a stirred mixture of cyclohexane, polyisobutylene as coacervation-inducing agent and ethylcellulose as wall-forming material. The addition of GL is at 78° C., then phase separation is induced by lowering the temperature first to 40° C., then to 25° C. The microcapsules, which have thick walls, are washed with cyclohexane and dried. […] DAGDL, calcium D-glucarate (CGT), and potassium hydrogen D-glucarate (PGT) were synthesized. For comparison of efficacy of the inhibitors, 1,5 mmoles/kg (GL, EGL or DAGDL) or 4.5 mmoles/kg (CGT or PGT) of the inhibitor in 1.0 ml of sesame oil or vehicle only (controls) was administered to rats by stomach tube at zero time. Blood samples were obtained from different rats by cardiac puncture under ether anesthesia. The serum was prepared and assayed for β-glucuronidase activity using a commerical diagnostic kit sold by Sigma Chemical Company, St. Louis, MO. The assay is based on the hydrolysis of phenolphthalein-glucuronide and quantitation of phenolphthalein in alkaline medium at […]. For tests of anti-carcinogencity, the inhibitors were administered by stomach tube in 1.0 ml of sesame oil 30 minutes before and again at 2.5 hours after the carcinogen, for DAGDL, or 3 hours and 30 minutes before the carcinogen, for EGL, CGT, and PGT. The controls received sesame oil only by stomach tube.
At the time periods indicated above blood samples were obtained from rats under ether aneathesia by cardiac puncture, the serum was then prepared and assayed for β-glucuronidase activity using a commercial diagnostic kit sold by Sigma Chem. Co., St. Louis, MO.
For the inhibition of the initiation stage, CGT was given by gavage in two doses (4.5 mmoles/kg/dose) at 3 hours and again at 0.5 hours before carcinogen administration. […] The concentrations of CGT were incorporated into the powdered chow diet. The blood samples were obtained 10 days after the initiation of the CGT feeding.
DAGDL or GL (1.5 mmol/kg) in 1.0 ml of sesame oil, or vehicle only (controls) was administered to rats by stomach tube at zero time. […] The serum was prepared and assayed for β-glucuronidase activity using a commercial diagnostic kit sold by Sigma Chemical Company, St. Louis, MO. The assay is based on the hydrolysis of phenolphthalein-glucuronide and quantitation of phenolphtalein in alkaline medium at 550 nm.

[1] = system: Estrogen and Androgen Levels
[2] = Source text: In the long term feeding experiments in which CGT intake was over an extended period of time, at the termination of the experiment the following organs were examined macroscopically and weighed: liver, kidneys, adrenals.
The adrenals were slightly (ca 20%) smaller by weight in the group receiving 10% CGT supplemented chow.

Organ DNA = assay: in vivo covalent binding of [14C]BP to organ DNA; design: species or system rat; conditions: for Covalent Binding Index (of BP), +DAGDL: DAGDL 1.5 mmol/kg 0.5 hours before [14C]BP; for inhibition at 1500 µmol/kg: Rattus norvegicus, DAGDL 1.5 mmol/kg
Description: Experimental rats were pretreated 0.5 hours earlier with one dose of 1.5 mmol/kg body weight of DAGDL which was administered by stomach tube as a suspension in 1.0 ml of sesame oil, while control rats received the vehicle only. The experimental and control group contained 2 rats each. Heart, kidney, liver, lung and mammary gland were removed under ether anesthesia 48 hours post-administration of BP. The DNA was isolated immediately and purified by chloroform phenol extraction of organ homogenates. In the case of mammary gland, the homogenate was treated with collagenase II. Following purification with ribonuclease A and protease K, the DNA concentration was estimated by U.V. absorption and the bound radioactivity was determined by radioassay in liquid scintillant.
In this experiment 50 day old female rats of the Sprague Dawley strain received 1.5 mmol/kg of DAGDL 0.5 hours before the intraperitoneal injection of 7.9 μmol/kg of [^14 C]BP. The DNA was extracted from the tissues and radioassayed by established procedures.

[3] = acute toxicity (weight loss) of N-methylnitrosourea; assay type: in vivo, rat; conditions: 21 days after treatment with MNU
[4] = Furuno et al. 1975; cited from earlier work
[5] = carcinogen 7,12-Dimethylbenz[a]anthracene, 21 days post-treatment
[6] = +CGT, 50 day old Sprague Dawley female rats
[7] = second dose of DAGDL 3 hours after the initial dose, 2.5 hours after carcinogen
[8] = +DAGDL (1.5% DAGDL diet), female Sprague Dawley rats
[9] = +DAGDL (1.5% DAGDL diet), male Sprague Dawley rats

In the case of `O=C([O-])[C@@H](O)[C@@H](O)[C@H](O)[C@@H](O)C(=O)[O-].[Ca+2]` [CGT, calcium D-glucarate], the “Percent Inhibition of the induction of the 60 kd factor” value (shortened to “Percent Inhibition”) (60 kd oncofetal protein; carcinogen 1,2-Dimethylhydrazine, 21 days post-treatment) is reported as 60%, the “Percent Inhibition” value (60 kd oncofetal protein; carcinogen 1-Nitropyrene, 21 days post-treatment) is reported as 50% and the “Percent Inhibition” value (60 kd oncofetal protein; carcinogen 2-Naphthylamine, 21 days post-treatment) is reported as 49%. For the same compound, the “Percent Inhibition” value (60 kd oncofetal protein; carcinogen 3-Methylcholanthrene, 21 days post-treatment) was 43%, the “Percent Inhibition” value (60 kd oncofetal protein; [5]) was 83% and the “Percent Inhibition” value (60 kd oncofetal protein; carcinogen N-Nitrosodibutylamine, 21 days post-treatment) was 53% and > 50%. For the same compound, the “Percent Inhibition” value (60 kd oncofetal protein; carcinogen N-Nitrosodiethylamine, 21 days post-treatment) was 41%, the “Percent Inhibition” value (60 kd oncofetal protein; carcinogen N-Nitrosodimethylamine, 21 days post-treatment) was 76% and the “Percent Inhibition” value (60 kd oncofetal protein; carcinogen N-Nitrosoethylurea, 21 days post-treatment) was 68%. The “Percent Inhibition” value (60 kd oncofetal protein; carcinogen N-Nitrosomethylurea, 21 days post-treatment) was 69%, the “Percent Inhibition” value (60 kd oncofetal protein; carcinogen Safrole, 21 days post-treatment) was 45% and the “Percent Inhibition” value (60 kd oncofetal protein; rat, in vivo) was 86% and 70%. For the same compound, the “reduction of serum β-glucuronidase activity” value (serum β-glucuronidase; rat, in vivo) was 50% and 80%, the “reduction of serum β-glucuronidase levels by dietary CGT” value (serum β-glucuronidase; rat, in vivo) was 50% and the “time-course of serum β-glucuronidase inhibition” value (serum β-glucuronidase; rat, in vivo) was “prolonged inhibition”. For the same compound, the “17-Ketosteroids (urinary excretion)” value [1, 6] was 13 μg/100 g body wt × 24 hrs, the “Estradiol (serum)” value [1, 6] was 39 pg/mL and the “reduction of serum estradiol level” value ([1]; CGT diet, female rats) was 24%. For the same compound, the “reduction of urinary 17-ketosteroid level” value ([1]; CGT diet, female rats) was 55%, the “decrease of adrenal weight” value ([2]; rat, in vivo) was about 20% and the “food intake and weight-gain compared with chow diet” value ([2]; rat, in vivo) was “essentially identical to those on chow diet”. The “liver and kidney weights compared with controls” value ([2]; rat, in vivo) was “essentially identical in weight”.
With `CC(=O)O[C@@H]1C(=O)O[C@H]2[C@@H]1OC(=O)[C@@H]2OC(C)=O` [DAGDL, 2,5-di-O-acetyl-D-glucaro-1,4;6,3-dilactone] the “60 kd factor in plasma, MNU with inhibitor” value (60 kd oncofetal protein; 504 h) was 1.2 Units, the “Percent Inhibition” value (60 kd oncofetal protein; carcinogen 2-Acetylaminofluorene, 21 days post-treatment) was 66% and the “Percent Inhibition” value (60 kd oncofetal protein; [5]) was 77%. The “Percent Inhibition” value (60 kd oncofetal protein; carcinogen Benzo[a]pyrene, 21 days post-treatment) was 76%, the “Covalent Binding Index (of BP), +DAGDL” value (Organ DNA; Heart) was 10 and the “Covalent Binding Index (of BP), +DAGDL” value (Organ DNA; Kidney) was 12. The “Covalent Binding Index (of BP), +DAGDL” value (Organ DNA; Liver) was 9, the “Covalent Binding Index (of BP), +DAGDL” value (Organ DNA; Lung) was 8 and the “Covalent Binding Index (of BP), +DAGDL” value (Organ DNA; Mammary gland) was 20. For the same compound, the inhibition at 1500 µmol/kg (Organ DNA; Heart) was 44%, the inhibition at 1500 µmol/kg (Organ DNA; Kidney) was 69% and the inhibition at 1500 µmol/kg (Organ DNA; Liver) was 63%. The inhibition at 1500 µmol/kg (Organ DNA; Lung) was 72%, the inhibition at 1500 µmol/kg (Organ DNA; Mammary gland) was 47% and the “time to 50% inhibition of serum β-glucuronidase” value (serum β-glucuronidase; 1.5 mmol/kg) was at most 0.5 h. The “time for which 50% inhibition or greater is maintained” value (serum β-glucuronidase; 1.5 mmol/kg, single dose) was “approximately 3 hours”, the “reduction of serum β-glucuronidase activity” value (serum β-glucuronidase; 1.5 mmoles/kg i.g., assayed 1 hour after administration) was 80% and the “effect of carcinogen co-administration on degree of β-glucuronidase inhibition” value (serum β-glucuronidase; carcinogen co-administered) was “not influenced significantly”. The inhibition at 1500 µmol/kg (serum β-glucuronidase; rat, 1.5 mmol/kg, within 0.5 hour of administration) was 50%, the “duration of approximately 50% inhibition after second dose” value (serum β-glucuronidase; [7]) was “up to 6 hours” and the “inhibition of β-glucuronidase after second dose” value (serum β-glucuronidase; [7]) was “approximately 50%”. For the same compound, the “time-course of serum β-glucuronidase inhibition” value (serum β-glucuronidase; single i.g. dose 1.5 mmoles/kg (GL, DAGDL, EGL)) was “marked and prolonged inhibition; also recorded: more prolonged inhibition”, the “sex hormone levels” value ([1]; 1.5% DAGDL diet, male and female rats) was “reduces sex hormone levels; also recorded: lower steady state level of steroid hormones” and the “17-Ketosteroids (urinary excretion)” value [1, 8] was 12 μg/100 g body wt × 24 hrs. The “Estradiol (serum)” value [1, 8] was 140 pmol/L, the “17-Ketosteroids (urinary excretion)” value [1, 9] was 17 μg/100 g body wt × 24 hrs and the “Testosterone (serum)” value [1, 9] was 9 nmol/L. For the same compound, the “difference in toxicity-induced weight loss of DAGDL-treated and non-treated rats” value [3] was “approximately 100 g”, the “clearance of antibiotics which cause kidney damage” value [4] was “inconclusive results” and the “decrease of adrenal weight” value ([2]; DAGDL supplemented chow) was 20-30%.

Reference: patent US4845123A, “Reduction in vivo of the inappropriate levels of endogenous and environmental-derived compounds by sustained-release inhibitors of β- g” (priority 1985, dated 1989)
